Measured values published in patent US20250223306A1, “TEAD INHIBITORS AND METHODS OF USE” (Sporos BioDiscovery, Inc., priority 2022, published 2025).

How the values were obtained:
NCI-H28 cells = assay: Proliferation, Cell Titer One assay; type: cell-based; conditions: 6 days
Experimental: (§1) Cell proliferation of a TEAD dependent NF2-null mesothelioma cell line, NCI-H226, and a TEAD-non-dependent mesothelioma cell line, NCI-H28 was assayed using two different protocols: • a) CellTiter-Glo 2.0 (Promega #G9243). The effect of the TEAD inhibitors disclosed herein on cell proliferation was determined in TEAD1-genetically dependent cell line NCI-H226 (responder cell line) and TEAD-independent cell lines (NCI-H23, HEK293T), as non-responder, negative control. Cells were seeded in 96-well plates (Thermo Scientific #167008) in growth media (RPMI-1640, Gibco #61870-010) for NCI-H226 and NCI-H23 or DMEM (Gibco #31966-021, HEK293T) with 10% Heat Inactivated Fetal Bovine Serum (Gibco 10500-064) at 800 (NCI-H226 and HEK-293T) or 2000 (NCI-H23) cells per well at 37° C., 5% CO2, humidified incubator; 24 hours later, fresh growth media containing test compound or DMSO vehicle was added and incubated with the cells for 144 hrs. TEAD inhibitor stocks were made at a 1000× fold excess in DMSO, and a dose response test compound dose range of 10,000 to 0.1 nM was used. Each treatment was carried out in triplicate. After 144 hrs of treatment, relative cell viability numbers were determined using the CellTiter-Glo 2.0 assay following the manufacturer's instructions. Test plates and CellTiter-Glo 2.0 reagent were allowed to equilibrate to room temperature. CellTiter-Glo 2.0 reagent was added at 1:1 reagent to media ratio to the 96-well cell plates, plates were placed on a plate shaker for 2 minutes and then incubated at room temperature for a further 10 minutes to allow complete cell lysis to occur. The mix was then transferred to white, 96-well luminometer assay plates (Greiner Bio One #655075). Luminescence was quantified using a CLARIOStar Plus multi-mode plate reader (BMG Labtech) in luminescence detection mode with the recommended settings (ultra-Glo pre-set: emission 545-50 nm with autofocus and enhanced dynamic range on). Relative cell density was expressed as a function of inhibitor concentration, with respect to DMSO-only control wells. Data where plotted using GraphPad Prism and IC50 values for the biological effect were calculated using the EC50 non-linear fit function using a sigmoidal, 4-parameter logistic, least squares fit with no constraints. • b) Cell Titer One (Promega, #G3582). The effect of the TEAD inhibitors disclosed herein on cell proliferation was also determined using the Promega Substrate Cell Titer Aqueous One Solution Reagent. The TEAD inhibitors were evaluated for the effects on cell proliferation responder (H226) and non-responder negative control cancer cell lines (CAMA1, H28), as well as non-transformed normal human cells (HUVEC, NHDF). Dissociated cells were resuspend in media (depending on cell line, either in DMEM, RPMI, or EMEM all with 10% FBS, with gentamicin as an antibiotic). Cells were seeded at 100 μL/well at 750 cells per well in 96-well plates and allowed to settle and attach. After an incubation of 24 hrs (37° C., 5% CO2, humidified incubator), 100 μL of test compound-containing media was added. A dilution series of 2000× concentrated stock of test compounds was prepared in DMSO, for final concentrations from 0.1 to 10,000 nM. After addition of test compound-containing media, cells were incubated for 6 days at 37° C., 5% CO2, humidified incubators). To measure cell density, 20 μL of Promega Substrate Cell Titer 96 Aqueous One Solution Reagent (Promega, #G3582) to each well was added according to the manufacturer's instructions. Plates were incubated at 37° C. for usually 3-8 hrs, to reach in the control cells (without compound) an OD of 1.5 at 490 nm. The OD was measured using Vmax [Molecular Devices] spectrophotometer plate reader. Media only-wells were used as background controls and cell densities normalized to DMSO vehicle control. ECs were taken as the concentration achieving 50% of maximal growth inhibition.

NCI-H226 cells = assay: Proliferation, Cell Titer One assay; type: cell-based; conditions: 6 days
Experimental: as §1

SMILES	IC50 (NCI-H28 cells; Homo sapiens, NCI-H28, 144 h)	IC50 (NCI-H226 cells; Homo sapiens, NCI-H226, 144 h)	IC50 (NCI-H28 cells)	IC50 (NCI-H226 cells)
C[C@H](NC(=O)c1cnc2c(C3=CCC(C(F)(F)F)CC3)cccc2c1)c1ccccn1 (stereo partly drawn) [Compound 2, N—((S)-1-(pyridin-2-yl)ethyl)-8-(4-(trifluoromethyl)cyclohex-1-en-1-yl)quinoline-3-carboxamide]	> 1000 nM	< 200 nM		
C[C@H](CO)NC(=O)c1cnc2c(C3=CCC(C(F)(F)F)CC3)cccc2c1 (stereo partly drawn) [Compound 7, N—((R)-1-hydroxypropan-2-yl)-8-(4-(trifluoromethyl)cyclohex-1-en-1-yl)quinoline-3-carboxamide]	> 1000 nM	< 200 nM		

Next, values leading:

IC50 (NCI-H28 cells; Homo sapiens, NCI-H28, 144 h)	IC50 (NCI-H226 cells; Homo sapiens, NCI-H226, 144 h)	IC50 (NCI-H28 cells)	IC50 (NCI-H226 cells)	SMILES
> 1000 nM	< 200 nM			O=C(NCc1ncco1)c1cnc2c(C3=CCC(C(F)(F)F)CC3)cccc2c1 (stereo not shown) [Compound 11, N-(oxazol-2-ylmethyl)-8-(4-(trifluoromethyl)cyclohex-1-en-1-yl)quinoline-3-carboxamide]
		> 1000 nM	< 200 nM	C[C@H](NC(=O)c1cnc2c(C3=CC[C@@H](C(F)(F)F)CC3)cccc2c1)c1ncco1 (single isomer, unassigned) [Compound 20, N-(1-(oxazol-2-yl)ethyl)-8-(4-(trifluoromethyl)cyclohex-1-en-1-yl)quinoline-3-carboxamide]
> 1000 nM	< 200 nM			C[C@H](NC(=O)c1cnc2c(C3=CC[C@@H](C(F)(F)F)CC3)cccc2c1)c1ncco1 (single isomer, unassigned) [Compound 19, N-(1-(oxazol-2-yl)ethyl)-8-(4-(trifluoromethyl)cyclohex-1-en-1-yl)quinoline-3-carboxamide]
